In brackets after ≈: the same amount, converted by molar mass.
Assay: Solubility of hexadecylphosphocholine in co-solvent systems at 25° C.
Format: physicochemical
Conditions: aqueous with cosolvent or surfactant or cyclodextrin
Text: The alkylphosphocholines are soluble in water, ethanol and methanol, but there are accurate bibliography data missing. […] For example, the solubility of alkylphosphocholines is sufficiency high in glycols and glycol ether. The improvement of alkylphosphocholines solubility is observed in propylene glycol-hexylene glycol-water mixtures as the solubility of alkylphosphocholines increases with increasing hexylene glycol concentration. The maximum is at 50% hexylene glycol level. […] The alkylphosphocholines solubility response is linear in the propylene glycol-concentration range 40÷60% in the co-solvent mixture. The addition of Transcutol P to the co-solvent mixture increased the solubility of alkylphosphocholines as a function of the concentration of Transcutol P, which may be due to a co-solvency effect. The functions of Transcutol P are simultaneously solubilizer and penetration enhancer to enable the active agent to cross the barrier of the stratum corneum.

Compound CCCCCCCCCCCCCCCCOP(=O)([O-])OCC[N+](C)(C)C [hexadecylphosphocholine] has a solubility (hexylene glycol 22, propylene glycol 44, Transcutol P 2, water 32 % v/v) of 153 mg/mL (≈ 375 mM), a solubility (co-solvent system (hexylene glycol/propylene glycol/water), hexylene glycol 22, propylene glycol 44, Transcutol P 0, water 34 % v/v) of 138 mg/mL (≈ 339 mM) and a solubility (co-solvent system (hexylene glycol/water), hexylene glycol 22, propylene glycol 0, Transcutol P 0, water 78 % v/v) of 119 mg/mL (≈ 291 mM).

From patent US8722648B2, “Liquid pharmaceutical form of alkylphosphocholine and method for preparing same” (priority 2009, dated 2014)
